Legend:
[1] = target: T1, 5-HT transporter (Rattus norvegicus, UniProt P31652); test: 5-HT uptake inhibition in rat brain synaptosomes (medulla and pons); assay type: biochemical
T1 construct: from tissue; host or cells: rat medulla and pons synaptosomes (P2 fraction)
Text: (§1) I. Method for Determining Noradrenalin and 5-HT Uptake Inhibition:
(§2) Synaptosomes from rat brain regions are freshly isolated for in vitro studies, as described in the publication “The isolation of nerve endings from brain” by E. G. Gray and V. P. Whittaker, J. Anatomy 96, pages 79-88, 1962. The corresponding literature description is hereby introduced as a reference and is deemed to be part of the disclosure.
(§3) The tissue (hypothalamus for the determination of noradrenalin uptake inhibition and medulla and pons for the determination of 5-HT uptake inhibition) is homogenised in ice-cooled 0.32 M sucrose (100 mg of tissue/1 mL) in a glass homogeniser with Teflon pestle using five complete up and down strokes at 840 revolutions/minute.
(§4) The homogenate is centrifuged at 4° C. for 10 minutes at 1000 g. After subsequent centrifugation at 17000 g for 55 minutes, the synaptosomes (P2 fraction) are obtained, which are resuspended in 0.32 M […] (0.5 mL/100 mg of original weight).
(§5) The particular uptake is measured in a 96-well microtitre plate. The volume is 250 μl and the incubation proceeds at room temperature (approx. 20-25° C.) under an O2 atmosphere.
(§6) The incubation time is 7.5 minutes for [^3H]-NA and 5 minutes for [^3H]-5-HT.
(§7) The 96 samples are then filtered through a Unifilter GF/B microtitre plate (Packard) and washed with 200 mL of incubated buffer using a “Brabdel MPXRI-96T Cell-Harvester”. The Unifilter GF/B plate is dried for 1 hour at 55° C. The plate is then sealed with a Back seal (Packard) and 35 μl of scintillation fluid are added per well (Ultima Gold, Packard). After sealing with a top seal (Packard) and establishing an equilibrium (around 5 hours), radioactivity is determined in a “Trilux 1450 Microbeta” (Wallac).
(§8) The quantity of protein used in the above determination corresponds to the values known from the literature, as for example described in “Protein measurement with the folin phenol reagent”, Lowry et al., J. Biol. Chem., 193, 265-275, 1951.
(§9) A detailed description of the method may additionally be found in the literature, for example in M. Ch. Frink, H.-H. Hennies, W. Engelberger, M. Haurand and B. Wilffert (1996) Arzneim.-Forsch./Drug Res. 46 (III), 11, 1029-1036.
(§10) The corresponding literature descriptions are hereby introduced in each case as a reference and are deemed to be part of the present disclosure.
(§11) The following characteristics were determined for the NA or 5-HT transporter: […]

[2] = target: T2, mGluR5 receptor (Sus scrofa, UniProt I3LUI7); test: Affinity for the mGluR5 receptor ([3H]-MPEP binding, pig brain homogenate); conditions: 10 μM compound, 15 nM [3H]-MPEP
T2 construct: 450 μg of protein from brain homogenate is incubated; from tissue; host or cells: pig brain hemispheres without medulla, cerebellum and pons
T2 sequence (I3LUI7 19-1212): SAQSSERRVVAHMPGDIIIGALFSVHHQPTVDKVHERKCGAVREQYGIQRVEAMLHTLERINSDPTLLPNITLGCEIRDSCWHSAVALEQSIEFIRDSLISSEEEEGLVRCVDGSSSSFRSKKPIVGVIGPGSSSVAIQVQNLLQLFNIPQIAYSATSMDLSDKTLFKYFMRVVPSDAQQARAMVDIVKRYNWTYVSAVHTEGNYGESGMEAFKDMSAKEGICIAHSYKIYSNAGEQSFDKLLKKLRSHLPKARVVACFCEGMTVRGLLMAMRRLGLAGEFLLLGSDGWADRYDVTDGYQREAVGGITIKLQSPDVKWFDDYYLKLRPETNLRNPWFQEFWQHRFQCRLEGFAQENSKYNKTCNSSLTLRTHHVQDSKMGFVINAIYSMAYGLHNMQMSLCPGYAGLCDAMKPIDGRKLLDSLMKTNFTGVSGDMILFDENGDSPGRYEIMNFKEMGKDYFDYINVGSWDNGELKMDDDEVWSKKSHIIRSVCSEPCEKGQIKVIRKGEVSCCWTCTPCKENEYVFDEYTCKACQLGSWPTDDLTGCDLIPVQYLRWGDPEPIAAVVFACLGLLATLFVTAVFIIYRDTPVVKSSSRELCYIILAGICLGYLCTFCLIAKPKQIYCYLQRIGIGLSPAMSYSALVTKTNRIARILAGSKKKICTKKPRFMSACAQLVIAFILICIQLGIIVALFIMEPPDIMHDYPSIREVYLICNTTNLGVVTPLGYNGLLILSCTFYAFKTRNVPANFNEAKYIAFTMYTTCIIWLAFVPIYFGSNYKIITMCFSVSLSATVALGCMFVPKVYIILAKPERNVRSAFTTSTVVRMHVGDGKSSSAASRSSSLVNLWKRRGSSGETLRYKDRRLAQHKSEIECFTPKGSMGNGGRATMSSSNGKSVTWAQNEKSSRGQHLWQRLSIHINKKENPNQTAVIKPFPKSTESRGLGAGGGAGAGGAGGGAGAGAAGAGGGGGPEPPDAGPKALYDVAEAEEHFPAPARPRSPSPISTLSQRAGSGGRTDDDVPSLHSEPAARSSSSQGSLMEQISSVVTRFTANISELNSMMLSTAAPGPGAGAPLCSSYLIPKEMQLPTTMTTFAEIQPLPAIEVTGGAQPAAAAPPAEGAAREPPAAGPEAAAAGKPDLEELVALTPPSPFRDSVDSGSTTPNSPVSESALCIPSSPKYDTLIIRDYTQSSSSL
Description: III. Method for Determining Affinity for the mGluR5 Receptor
Pig brain homogenate is produced by homogenisation (Polytron Pt 3000, Kinematica AG, 10,000 rpm (revolutions per minute) for 90 seconds) of pig brain hemispheres without medulla, cerebellum and pons in a buffer of pH 8.0 (30 mM Hepes, Sigma, order number H3375+1 tablet Complete Roche Diagnostics, order number 1836145 made up to 100 ml) in a ratio of 1:20 (brain weight/volume) and differential centrifugation at 900 g and 40,000 g. 450 μg of protein from brain homogenate is incubated in each case in 250 μl incubation batches in 96-well microtitre plates with 15 nM ^3[H]-MPEP (Tocris, order number R1212) and the compounds to be investigated (in each case 10 μM in the test) in the above-stated buffer at room temperature for 60 minutes.
The batches are then filtered with the assistance of a Brandel Cell Harvester (Brandel, Grade Robotic 9600) on Unifilter plates with glass filter mats (Perkin Elmer, order number 6005177) and then rewashed 3 times with buffer of the above-stated composition using 250 μl per sample. The filter plates are then dried for 60 minutes at 55° C. Then 30 μl of Ultima Gold scintillating material (Packard BioScience, order number 6013159) is added per well and after 3 hours the samples are measured using the B counter ([…], Perkin Elmer). Nonspecific binding is determined by the addition of 10 μM 2-methyl-6-(phenylethynyl)-pyridine (Tocris, order number 1212).

[3] = target: T3, NA transporter (Rattus norvegicus, UniProt Q63380); test: Noradrenalin uptake inhibition in rat brain synaptosomes (hypothalamus); assay type: biochemical
T3 construct: from tissue; host or cells: rat hypothalamus synaptosomes (P2 fraction)
T3 sequence (Q63380 1-617): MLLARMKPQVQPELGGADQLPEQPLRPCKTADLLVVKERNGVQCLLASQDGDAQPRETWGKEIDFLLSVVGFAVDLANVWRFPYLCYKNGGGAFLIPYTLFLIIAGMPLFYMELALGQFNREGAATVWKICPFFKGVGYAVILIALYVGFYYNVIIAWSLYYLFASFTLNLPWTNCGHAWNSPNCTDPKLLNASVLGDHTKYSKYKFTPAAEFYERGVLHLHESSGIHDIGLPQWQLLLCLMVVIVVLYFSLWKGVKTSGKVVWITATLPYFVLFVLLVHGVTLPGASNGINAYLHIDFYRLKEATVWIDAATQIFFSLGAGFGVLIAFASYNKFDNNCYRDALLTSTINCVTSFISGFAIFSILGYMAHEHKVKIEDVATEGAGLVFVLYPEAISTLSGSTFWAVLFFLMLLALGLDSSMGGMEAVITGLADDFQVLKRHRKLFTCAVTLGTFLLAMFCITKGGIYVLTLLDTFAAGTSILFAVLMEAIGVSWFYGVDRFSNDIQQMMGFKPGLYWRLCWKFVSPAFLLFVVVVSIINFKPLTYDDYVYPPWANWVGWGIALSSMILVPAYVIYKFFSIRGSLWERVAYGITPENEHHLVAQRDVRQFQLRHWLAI
Text: as §1, §2, §3, §4, §5, §6, §7, §8, §9, §10, §11

T1 sequence (P31652 whole entry): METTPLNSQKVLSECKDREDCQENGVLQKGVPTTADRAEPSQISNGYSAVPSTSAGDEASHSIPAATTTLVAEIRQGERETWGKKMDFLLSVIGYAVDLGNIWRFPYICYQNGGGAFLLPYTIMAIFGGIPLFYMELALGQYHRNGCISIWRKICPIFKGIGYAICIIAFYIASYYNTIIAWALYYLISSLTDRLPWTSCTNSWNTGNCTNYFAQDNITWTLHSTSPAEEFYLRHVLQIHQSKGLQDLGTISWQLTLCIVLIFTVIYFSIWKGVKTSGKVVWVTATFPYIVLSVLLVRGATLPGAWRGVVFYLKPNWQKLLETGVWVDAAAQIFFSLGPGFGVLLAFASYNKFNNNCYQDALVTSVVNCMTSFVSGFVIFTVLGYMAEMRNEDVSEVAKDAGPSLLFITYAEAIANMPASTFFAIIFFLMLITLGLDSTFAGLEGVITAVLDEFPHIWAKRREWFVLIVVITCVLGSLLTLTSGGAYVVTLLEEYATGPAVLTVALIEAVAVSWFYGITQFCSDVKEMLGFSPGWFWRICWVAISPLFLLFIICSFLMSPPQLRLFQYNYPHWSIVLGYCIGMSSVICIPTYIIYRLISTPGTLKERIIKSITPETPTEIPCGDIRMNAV

CCCC(=O)Nc1ncc2c(n1)CCC(NC(=O)C=Cc1cccc(C(F)(F)F)c1)C2 (stereo not shown) [Example 168, N-(2-butyrylamino-5,6,7,8-tetrahydro-quinazolin-6-yl)-3-(3-trifluoromethyl-phenyl)-acrylamide]
inhibition at 1 µM [1]: 46% | inhibition at 10 µM [2]: 33.5%

CCc1ccc(C(=O)Nc2ncc3c(n2)CCN(S(=O)(=O)c2ccc(OC)cc2)C3)cc1 [Example 172, 4-ethyl-N-[6-(4-methoxy-benzenesulfonyl)-5,6,7,8-tetrahydro-pyrido[4,3-d]pyrimidin-2-yl]-benzamide]
inhibition at 10 µM [3]: 85% | inhibition at 1 µM [1]: 57% | inhibition at 10 µM [2]: 70.1%

Cc1ccc(C(=O)N2CCc3nc(NC(=O)c4cccc5ccccc45)ncc3C2)cc1F [Example 154, naphthalene-1-carboxylic acid [6-(3-fluoro-4-methyl-benzoyl)-5,6,7,8-tetrahydro-pyrido[4,3-d]pyrimidin-2-yl]-amide]
inhibition at 10 µM [3]: 50% | inhibition at 10 µM [2]: 30.7%

CCOc1ccccc1C(=O)Nc1ncc2c(n1)CCN(S(=O)(=O)c1ccccc1C(=O)OC)C2 [Example 82, 2-[2-(2-ethoxy-benzoylamino)-7,8-dihydro-5H-pyrido[4,3-d]pyrimidine-6-sulfonyl]-benzoic acid methyl ester]
inhibition at 10 µM [3]: 32% | inhibition at 10 µM [2]: 36.3%

O=C(Cc1cccc2ccccc12)NC1CCc2nc(NC(=O)c3cccs3)ncc2C1 (stereo not shown) [Example 177, thiophene-2-carboxylic acid [6-(2-naphthalen-1-yl-acetylamino)-5,6,7,8-tetrahydro-quinazolin-2-yl]-amide]
inhibition at 1 µM [1]: 39% | inhibition at 10 µM [2]: 42%

Cc1ccc(C(=O)Nc2ncc3c(n2)CCN(S(=O)(=O)c2cc(F)ccc2C)C3)cc1 [Example 107, N-[6-(5-fluoro-2-methyl-benzenesulfonyl)-5,6,7,8-tetrahydro-pyrido[4,3-d]pyrimidin-2-yl]-4-methyl-benzamide]
inhibition at 10 µM [3]: 39% | inhibition at 1 µM [1]: 36% | inhibition at 10 µM [2]: 38.2%

O=C(Nc1ncc2c(n1)CCN(C(=O)c1ccc(F)cc1F)C2)c1ccc(Cl)cc1 [Example 152, 4-chloro-N-[6-(2,4-difluoro-benzoyl)-5,6,7,8-tetrahydro-pyrido[4,3-d]pyrimidin-2-yl]-benzamide]
inhibition at 1 µM [1]: 33% | inhibition at 10 µM [2]: 34%

CCCCC(C)CCC(=O)N1CCc2nc(NC(=O)c3cccc4ccccc34)ncc2C1 (stereo not shown) [Example 193, naphthalene-1-carboxylic acid [6-(4-methyl-octanoyl)-5,6,7,8-tetrahydro-pyrido[4,3-d]pyrimidin-2-yl]-amide]
inhibition at 10 µM [3]: 43% | inhibition at 1 µM [1]: 38% | inhibition at 10 µM [2]: 51.8%

COc1cccc(C(=O)Nc2ncc3c(n2)CCN(S(=O)(=O)c2cc(Br)ccc2OC)C3)c1 [Example 129, N-[6-(5-bromo-2-methoxy-benzenesulfonyl)-5,6,7,8-tetrahydro-pyrido[4,3-d]pyrimidin-2-yl]-3-methoxy-benzamide]
inhibition at 10 µM [2]: 51.1%

O=C(Nc1ncc2c(n1)CCN(C(=O)c1ccc(Cl)c(Cl)c1)C2)c1cccnc1 [Example 156, N-[6-(3,4-dichloro-benzoyl)-5,6,7,8-tetrahydro-pyrido[4,3-d]pyrimidin-2-yl]-nicotinamide]
inhibition at 10 µM [3]: 50% | inhibition at 10 µM [2]: 46%

CC(C)(C)OC(=O)N1CCC(C(=O)NC2CCc3nc(NC(=O)c4ccc(F)cc4)ncc3C2)CC1 (stereo not shown) [Example 194, 4-[2-(4-fluoro-benzoylamino)-5,6,7,8-tetrahydro-quinazolin-6-ylcarbamoyl]-piperidine-1-carboxylic acid tert-butyl ester]
inhibition at 10 µM [2]: 45.6%

CC(C)(C)c1ccc(C(=O)Nc2ncc3c(n2)CCN(C(=O)c2csc(-c4ccccc4)n2)C3)cc1 [Example 29, 4-tert-butyl-N-[6-(2-phenyl-thiazole-4-carbonyl)-5,6,7,8-tetrahydro-pyrido[4,3-d]pyrimidin-2-yl]-benzamide]
inhibition at 10 µM [2]: 40.5%

O=C(CCCCCNC(=O)OCc1ccccc1)NC1CCc2nc(NC(=O)c3ccc(F)cc3)ncc2C1 (stereo not shown) [Example 181, {5-[2-(4-fluoro-benzoylamino)-5,6,7,8-tetrahydro-quinazolin-6-ylcarbamoyl]-pentyl}-carbamic acid benzyl ester]
inhibition at 10 µM [2]: 36.4%

COc1ccccc1C(=O)Nc1ncc2c(n1)CCN(C(=O)c1cc(-c3ccc(Cl)cc3)oc1C)C2 [Example 78, N-{6-[5-(4-chloro-phenyl)-2-methyl-furan-3-carbonyl]-5,6,7,8-tetrahydro-pyrido[4,3-d]pyrimidin-2-yl}-2-methoxy-benzamide]
inhibition at 10 µM [2]: 41.1%

O=C(Nc1ncc2c(n1)CCC(NS(=O)(=O)c1ccc(Cl)s1)C2)c1ccc(F)cc1 (stereo not shown) [Example 202, N-[6-(5-chloro-thiophene-2-sulfonylamino)-5,6,7,8-tetrahydro-quinazolin-2-yl]-4-fluoro-benzamide]
inhibition at 10 µM [2]: 33.1%

O=C(Nc1ncc2c(n1)CCN(C(=O)CCC1CCCC1)C2)c1ccncc1 [Example 132, N-[6-(3-cyclopentyl-propionyl)-5,6,7,8-tetrahydro-pyrido[4,3-d]pyrimidin-2-yl]-isonicotinamide]
inhibition at 10 µM [2]: 58.1%

CCOc1ccccc1C(=O)Nc1ncc2c(n1)CCN(C(=O)c1sccc1Cl)C2 [Example 145, N-[6-(3-chloro-thiophene-2-carbonyl)-5,6,7,8-tetrahydro-pyrido[4,3-d]pyrimidin-2-yl]-2-ethoxy-benzamide]
inhibition at 10 µM [2]: 84.4%

Cc1ccc(S(=O)(=O)N2CCc3nc(NC(=O)c4cccc(F)c4)ncc3C2)cc1 [Example 143, 3-fluoro-N-[6-(toluene-4-sulfonyl)-5,6,7,8-tetrahydro-pyrido[4,3-d]pyrimidin-2-yl]-benzamide]
inhibition at 10 µM [3]: 53% | inhibition at 10 µM [2]: 37.2%

CCCC(=O)Nc1ncc2c(n1)CCC(NS(=O)(=O)c1cccc(C)c1)C2 (stereo not shown) [Example 146, N-[6-(toluene-3-sulfonylamino)-5,6,7,8-tetrahydro-quinazolin-2-yl]-butyramide]
inhibition at 10 µM [2]: 39.6%

O=C(Nc1ncc2c(n1)CCN(S(=O)(=O)Cc1ccccc1)C2)c1ccc(F)cc1 [Example 178, 4-fluoro-N-(6-phenylmethanesulfonyl-5,6,7,8-tetrahydro-pyrido[4,3-d]pyrimidin-2-yl)-benzamide]
inhibition at 10 µM [2]: 45.3%

CC(C)C(NC(=O)OCC1c2ccccc2-c2ccccc21)C(=O)NC1CCc2nc(NC(=O)c3cccs3)ncc2C1 (stereo not shown) [Example 139, (2-methyl-1-{2-[(thiophene-2-carbonyl)-amino]-5,6,7,8-tetrahydro-quinazolin-6-ylcarbamoyl}-propyl)-carbamic acid 9H-fluoren-9-ylmethyl ester]
inhibition at 10 µM [2]: 31%

Cc1nc(C(F)(F)F)ccc1C(=O)NC1CCc2nc(NC(=O)c3ccc(F)cc3)ncc2C1 (stereo not shown) [Example 197, N-[2-(4-fluoro-benzoylamino)-5,6,7,8-tetrahydro-quinazolin-6-yl]-2-methyl-6-trifluoromethyl-nicotinamide]
inhibition at 10 µM [2]: 32.1%

O=C(Nc1ncc2c(n1)CCC(NS(=O)(=O)c1cc(Cl)sc1Cl)C2)c1cccs1 (stereo not shown) [Example 180, thiophene-2-carboxylic acid [6-(2,5-dichloro-thiophene-3-sulfonylamino)-5,6,7,8-tetrahydro-quinazolin-2-yl]-amide]
inhibition at 10 µM [3]: 34% | inhibition at 10 µM [2]: 86.7%

Reference: patent publication US20090176811A1, “Substituted 5,6,7,8-Tetrahydro-pyrido[4,3-d]pyrimidine-2-yl Compounds and 5,6,7,8-Tetrahydro-quinazoline-2-yl Compounds” (GRUENENTHAL GmbH, priority 2004, published 2009)
